# From patent US20150065440A1 (Progen Pharmaceuticals Limited, priority 2007, published 2015)
# Read-outs that look alike come from different tables or passages of the source.
# Legend:
# VEGF = molecular target: T1, VEGF (Homo sapiens, UniProt P15692); experiment: Growth factor binding assay (SPR solution affinity), VEGF; conditions: HBS-EP buffer, 25° C.
# T1 sequence (P15692 207-395): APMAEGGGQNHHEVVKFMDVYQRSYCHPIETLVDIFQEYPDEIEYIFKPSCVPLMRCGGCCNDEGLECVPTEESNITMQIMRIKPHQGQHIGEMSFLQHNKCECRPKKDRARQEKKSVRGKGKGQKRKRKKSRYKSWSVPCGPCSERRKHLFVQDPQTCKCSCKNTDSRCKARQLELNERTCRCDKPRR
# Outline: (§1)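 Kd measured by SPR solution affinity: fixed growth factor with varying ligand competing for heparin-coated sensorchip, 25 °C. Buffer HBS-EP pH 7.4 (150 mM NaCl) for FGF-1 and VEGF; FGF-2 with 0.3 M NaCl. Duplicate values averaged.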
# [1] = system: pooled normal human plasma; experiment: Anticoagulant activity, APTT; conditions: 0.1 mg/mL in normal pooled human plasma
# Method: APTT measurements were performed on a STAGO STA-Compact Coagulation Analyser using standard protocols according to the manufacturer's instructions. Unfractionated heparin (UFH) was used as a control.
# [2] = system: normal pooled human plasma; experiment: Anticoagulant activity, Heptest; conditions: 0.1 mg/mL in normal pooled human plasma
# FGF-2 = FGF-2 (Homo sapiens, UniProt P09038); experiment: Growth factor binding assay (SPR solution affinity), FGF-2; conditions: SPR, HBS-EP buffer containing 0.3 M NaCl, 25° C.; read-out: Kd FGF-2
# FGF-2, sequence (P09038 143-288, species assumed): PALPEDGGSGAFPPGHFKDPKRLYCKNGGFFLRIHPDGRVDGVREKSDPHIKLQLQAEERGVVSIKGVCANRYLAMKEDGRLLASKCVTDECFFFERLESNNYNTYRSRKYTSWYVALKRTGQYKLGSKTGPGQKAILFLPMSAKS
# Outline: as §1
# [3] = assay type: in vivo, Sprague-Dawley rats
# Method: Adult male Sprague-Dawley (SD) rats (approx 300 g) were used for the experiment. Femoral artery cannulae was implanted and exteriorised following isoflurane anaesthesia. Jugular vein artery cannulae was implanted and exteriorized. […]. Blood samples (˜325 μL) were collected into sample tubes containing the anticoagulant sodium citrate from femoral artery catheter pre-dose and at 5, 20 minutes and 2, 5, 8, 12, 24, and 48 hours post-dose, and kept at reduced temperature (approx 4° C.) until centrifuged. Blood samples were centrifuged, plasma separated and 50 μL aliquot of the plasma transferred to a scintillation vial for counting. At the end of the experimental period animals were euthanased via a lethal overdose of pentobarbital. The level of radioactivity in the plasma was measured following mixing of samples with Packard Ultima Gold liquid scintillation counting cocktail. Counting was conducted on a Beckman liquid scintillation counter (LS6500) or Packard TriCarb liquid scintillation counter for 10 minutes per sample. Results (DPM, calculated from an in-built quench curve in the counter) were corrected for background prior to any calculations. The pharmacokinetic parameters were calculated using PK Solutions 2.0 software (Summit Research Services, Ohio, U.S.A.) and are summarised in Table 11 below.
# HUVECs = experiment: Matrigel microtubule formation assay; assay type: cell-based, human; conditions: 10 μM, relative to controls
# Method: (§2) Medium for the proliferation studies was prepared using EGM with 2% FBS and gentamicin only. In a later study, complete EGM was used for the VEGF groups in an attempt to enhance the proliferative index of VEGF-stimulated groups. For the tube formation assay, complete medium was used with only heparin omitted. Compounds under investigation were weighed out from powder stocks and diluted in PBS to 10 mM stock solutions and stored at −80° C. For experiments, compounds were subsequently diluted in EBM-2 medium (supplemented with 2% FBS and gentamicin) to various working concentration as required.
# The tube formation assay was performed essentially as described by Malinda et al., with modifications.^41 HUVECs in the fourth or fifth passage at 70-80% confluence were harvested and resuspended in Lonza endothelial growth medium (EGM2) containing all supplements as directed by manufacturer, except heparin, at a cell density of 4×10^5 cells per mL. For each set of triplicate wells, 200 μL of cells (4×10^5/mL) were treated with an equal volume of compound to obtain final concentrations of 10, 50 or 100 μM (thus ensuring 1×300 μL are available for each condition). A 100 μL aliquot of cells was then plated onto 96-well plates pre-coated with growth factor reduced Matrigel™ (50 μL for 30 min followed by a further 30 μL for 1 h) and incubated for 18-22 h. Tube formation was examined by phase-contrast microscopy and images were collected using an Olympus C5050 digital camera. Tube formation inhibition was quantitated manually from images by recording the total number of nodes connecting 3 or more tubules. Untreated HUVECs were used as a control for normal cell growth and tube formation in Matrigel.
# FGF-1 = FGF-1 (Homo sapiens, UniProt P05230); experiment: Growth factor binding assay (SPR solution affinity), FGF-1; conditions: SPR, HBS-EP buffer, 25° C.; read-out: Kd FGF-1
# FGF-1, sequence (P05230 whole entry, species assumed): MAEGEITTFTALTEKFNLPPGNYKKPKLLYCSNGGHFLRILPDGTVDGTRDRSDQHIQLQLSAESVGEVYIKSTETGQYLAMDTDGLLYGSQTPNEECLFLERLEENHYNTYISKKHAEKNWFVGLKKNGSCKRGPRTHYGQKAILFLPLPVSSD
# rat aortic tissue = experiment: Ex vivo angiogenic sprout assay (rat aortic angiogenesis assay); assay type: cell-based, Sprague Dawley rats
# Method: Explants from rat aortas were prepared by a modification of protocols previously described^42-54. In this model, the rat aortic endothelium exposed to a three dimensional matrix of ECM-derived proteins (Matrigel™), switches to a microvascular phenotype, generating branching networks of microvessels.
# Briefly, thoracic aortas were excised from 2- to 4-month old Sprague Dawley rats and trimmed of remaining fat and connective tissue. Great care was taken at every stage to reduce physical damage of the aorta. Tissue was transferred to complete EBM-2 media (Cambrex) containing 2% FCS and all Singlequots™ (Cambrex) reagents except for heparin. Meanwhile, Matrigel™ (BD Biosciences) was allowed to cool on ice and once in a liquid form, 180 μL was pipetted into 48-well tissue culture plates (Nunc). The plates were incubated at 37° C. for 30 min to allow Matrigel™ to solidify.
# Aortas were prepared by cutting 1 mm ring sections and then being bisected. Aortic segments were then carefully placed on top on the Matrigel™ in the centre of each well and once orientated as required, 60 μL of extra Matrigel™ was placed on top and the plate was returned to the incubator for a further 20 min. Each well was then supplemented with 1.0 mL media in the absence (control) or presence of test compounds usually at two concentrations within the range of 1-50 μM, depending on the particular compound/experiment. Cultures were replenished as appropriate every 48 h and scoring of microvessels was carried out at various timepoints up to 8-10 days. The extent of microvessel sprouting was determined by employing a scoring system from 0-5, where 0=no microvessels to 5=diffuse angiogenesis as previously described^45. Sprouting vessels were photographed using the 4× objective with an Olympus C-7070 camera and an adaptor for the eyepiece.
# In some instances, to determine the potential toxicity of compounds in this assay, the viability of the tissue was assessed by withdrawing the compound/media from the culture on day 6 or 7 and adding complete media with VEGF (typically 10 ng/mL) for up to an additional 7 days. In the absence of toxicity, the viable tissue should sprout microvessels in response to the exogenous growth factor.
# The inhibitory effect of compounds of the present invention on angiogenesis was assayed using the angiogenic sprout/microvessel formation (rat aortic) assay described above. Embedding of the rat aortic tissue in Matrigel™ in the absence of any inhibitor (control) yielded extensive angiogenic sprouting (as a score of 5 indicates diffuse angiogenesis) as illustrated by FIG. 1.
# [4] = molecular target: T2, recombinant human heparanase (Homo sapiens, UniProt Q9Y251); experiment: Heparanase inhibition assay (fondaparinux cleavage, WST-1); conditions: read-out: Ki Heparanase; IC50 converted into Ki; fondaparinux 100 μM, pH 5.0
# T2 sequence (Q9Y251 158-543 limits assumed): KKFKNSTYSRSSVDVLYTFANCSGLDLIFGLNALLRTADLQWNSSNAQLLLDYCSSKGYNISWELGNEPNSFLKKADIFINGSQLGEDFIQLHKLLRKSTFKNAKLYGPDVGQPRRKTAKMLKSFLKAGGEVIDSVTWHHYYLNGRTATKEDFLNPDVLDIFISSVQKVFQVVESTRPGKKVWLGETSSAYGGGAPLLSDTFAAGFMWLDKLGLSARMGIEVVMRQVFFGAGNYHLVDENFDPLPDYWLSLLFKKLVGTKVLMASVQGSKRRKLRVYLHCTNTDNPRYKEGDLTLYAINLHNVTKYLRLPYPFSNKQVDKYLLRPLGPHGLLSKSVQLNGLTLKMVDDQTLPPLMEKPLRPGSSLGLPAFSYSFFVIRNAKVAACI
# T2 sequence (Q9Y251 36-109 limits assumed): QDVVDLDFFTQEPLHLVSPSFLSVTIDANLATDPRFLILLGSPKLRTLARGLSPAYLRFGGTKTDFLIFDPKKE
# [5] = system: HUVEC proliferation induced by FGF-1; experiment: Growth factor induced endothelial cell proliferation assay, FGF-1; assay type: cell-based, human; conditions: 72 h; read-out: FGF-1 (IC50) inhibition of HUVEC proliferation
# Excerpt: (§3) HUVEC cells were maintained and subcultured according to standard cell culture protocols essentially as described by Lonza. Briefly, cells were maintained in Lonza endothelial growth media (EGM) with recommended supplements and growth factors (VEGF, FGF2, EFG, IGF, hydrocortisone, fetal bovine serum (FBS), ascorbic acid, heparin and gentamicin). Cells were subcultured when they reached 70-80% confluence by trypsinisation and reseeding in fresh growth medium in new culture vessels at 2500 to 5000 cells/cm^2 of vessel surface area. Cell counts were performed using a haemocytometer and viable cells were visualized with trypan blue.
# as §2
# (§4) In the first of a series of experiments, the assay was further optimized by examining the cell density and growth factor concentration required to induce maximal proliferation by growth factors. Briefly, 100 μL of cells was added to each well at concentrations between 1-3×10^3 per well. Growth factors and test compounds were then added in 50 μL volumes at specified concentrations to obtain a final volume of 200 μL. Following incubation for 70 h, 20 μL of the CellTitre 96® Aqueous One Solution Cell Proliferation Assay (Promega) was added for 2 h prior to reading the absorbance at 490 nm to obtain OD values.
# [6] = system: HUVEC proliferation induced by VEGF; experiment: Growth factor induced endothelial cell proliferation assay, VEGF; assay type: cell-based, human; conditions: 72 h; read-out: VEGF (IC50) inhibition of HUVEC proliferation
# Excerpt: as §3, §2, §4
# [7] = system: HUVEC proliferation induced by FGF-2; experiment: Growth factor induced endothelial cell proliferation assay, FGF-2; assay type: cell-based, human; conditions: 72 h; read-out: FGF-2 (IC50) inhibition of HUVEC proliferation
# Excerpt: as §3, §2, §4
Compound,Kd (VEGF),APTT [1],Heptest [2],Kd (FGF-2),"Half-life (iv) ([3]; intra venous, Sprague-Dawley rats, radiolabelled compound in plasma)","Half-life (sc) ([3]; subcutaneous, Sprague-Dawley rats, radiolabelled compound in plasma)","inhibition at 10 µM (HUVECs; Homo sapiens, HUVEC, read-out: Microtubule Formation % inhibition at 10 μM)",Kd (FGF-1),inhibition at 10 µM (rat aortic tissue; Rattus norvegicus),Ki [4],Microtubule Formation % inhibition at 10 μM (HUVECs),IC50 [5],IC50 [6],IC50 [7],% Inhibition of Angiogenesis (10 μM) (rat aortic tissue; 10 μM),"Half-life (iv) ([3]; rat, in vivo, iv)","Half-life (sc) ([3]; rat, in vivo, sc)"
"CC(C)CCCC(C)C1CCC2C3CCC4CC(OC5OC(COS(=O)(=O)O)C(OC6OC(COS(=O)(=O)O)C(OC7OC(COS(=O)(=O)O)C(OC8OC(COS(=O)(=O)O)C(OS(=O)(=O)O)C(OS(=O)(=O)O)C8OS(=O)(=O)O)C(OS(=O)(=O)O)C7OS(=O)(=O)O)C(OS(=O)(=O)O)C6OS(=O)(=O)O)C(OS(=O)(=O)O)C5OS(=O)(=O)O)CCC4(C)C3CCC12C [Compound 65, 3β-Cholestanyl 2,3,4,6-tetra-O-sodium sulfonato-α-D-glucopyranosyl-(1→4)-2,3,6-tri-O-sodium sulfonato-α-D-glucopyranosyl-(1→4)-2,3,6-tri-O-sodium sulfonato-α-D-glucopyranosyl-(1→4)-2,3,6-tri-O-sodium sulfonato-β-D-glucopyranoside]",0.0289 ± 0.0023 µM,71.9 s,28.6 s,0.39 ± 0.08 µM,17.3 h,21.3 h,,,,,,,,,,,
"CCCCCCCCCCCCCCCCCC(=O)NCCCO[C@@H]1O[C@H](COS(=O)(=O)[O-])[C@@H](O[C@H]2O[C@H](COS(=O)(=O)[O-])[C@@H](O[C@H]3O[C@H](COS(=O)(=O)[O-])[C@@H](OS(=O)(=O)[O-])[C@H](OS(=O)(=O)[O-])[C@H]3OS(=O)(=O)[O-])[C@H](OS(=O)(=O)[O-])[C@H]2OS(=O)(=O)[O-])[C@H](OS(=O)(=O)[O-])[C@H]1OS(=O)(=O)[O-].[Na+].[Na+].[Na+].[Na+].[Na+].[Na+].[Na+].[Na+].[Na+].[Na+] [Compound 123, 3-Stearamidopropyl 2,3,4,6-tetra-O-sulfo-α-D-glucopyranosyl-(1→4)-2,3,6-tri-O-sulfo-α-D-glucopyranosyl-(1→4)-2,3,6-tri-O-sulfo-β-D-glucopyranoside, decasodium salt]",0.38 ± 0.11 µM,51.1 s,24.9 s,0.53 ± 0.05 µM,,,33%,0.0322 ± 0.0023 µM,23%,0.0113 ± 0.0004 µM,,,,,,,
"CC(C)CCC[C@@H](C)[C@H]1CC[C@H]2[C@@H]3CCC4CC(OCCCNC(=S)N[C@@H]5O[C@H](COS(=O)(=O)[O-])[C@@H](O[C@H]6O[C@H](COS(=O)(=O)[O-])[C@@H](O[C@H]7O[C@H](COS(=O)(=O)[O-])[C@@H](OS(=O)(=O)[O-])[C@H](OS(=O)(=O)[O-])[C@H]7OS(=O)(=O)[O-])[C@H](OS(=O)(=O)[O-])[C@H]6OS(=O)(=O)[O-])[C@H](OS(=O)(=O)[O-])[C@H]5OS(=O)(=O)[O-])CC[C@]4(C)[C@H]3CC[C@]12C.[Na+].[Na+].[Na+].[Na+].[Na+].[Na+].[Na+].[Na+].[Na+].[Na+] (stereo partly drawn) [Compound 139, 1-[(Cholestan-3-yloxy)propyl]-3-[2,3,4,6-tetra-O-sulfo-α-D-glucopyranosyl-(1→4)-2,3,6-tri-O-sulfo-α-D-glucopyranosyl-(1→4)-2,3,6-tri-O-sulfo-β-D-glucopyranoside]thiourea, decasodium salt]",0.379 ± 0.013 µM,,,0.88 ± 0.11 µM,,,,0.072 ± 0.012 µM,,,36%,2.16 µM,2.31 µM,1.5 µM,92%,,
PI-88 [reference compound],,,,,,,,,,,,,,,,1.1 h,1.2 h
